Results taken from patent US6342633B1, “O-benzyl oxime ether derivatives and their use as pesticides” (Bayer Aktiengesellschaft, priority 1993, dated 2002).

| Structure (SMILES) | melting point [°C] |
| --- | --- |
| CNC(=S)/C(=N/OC)c1ccccc1CON=C(C)c1ccc(Cl)cc1 [Compound 4.10] | 88 to 89 |
| CO/N=C(N)/C(=N/OC)c1ccccc1CO/N=C(\C)c1ccc(Cl)cc1 [Compound 3.101] | 76 to 78 |
| CNC(=S)/C(=N/OC)c1ccccc1CO/N=C(\C)c1cccc(C(F)(F)F)c1 [Compound 4.51, N-methyl-2-[2-(methyl(3-trifluoromethylphenyl)oximinomethyl)phenyl]-2-methoximinothioacetamide] | 100 to 106 |

Continued, values first:

| melting point [°C] | Structure (SMILES) |
| --- | --- |
| 79 to 80 | C/N=C(OC)/C(=N/OC)c1ccccc1CO/N=C(\C)c1ccc(Cl)cc1 [Example H-4, N,O-dimethyl-2-[2-(methyl(4-chlorophenyl)oximinomethyl)phenyl]2-methoximinoacetimidate] |
| 73 to 75 | [H]/N=C(OC)/C(=N/OC)c1ccccc1CON=C(C)c1ccc(Cl)cc1 [Compound 1.13] |
